Experimental data as given in article PMC9369442, “Synthetic Peucedanocoumarin IV Prevents α-Synuclein Neurotoxicity in an Animal Model of Parkinson’s Disease” (International Journal of Molecular Sciences, 2022).
Read-outs that look alike come from different tables or passages of the source.

Experiments:
[1] = Rat tissue distribution 15 min after intravenous bolus; format: in vivo; conditions: rats; for Kp at 15 min: Sprague-Dawley, rat, brain
Description: Figure 3 Pharmacokinetic analysis and tissue distribution of PCiv. (A) Pharmacokinetic analysis of blood PCiv levels at each indicated time point following intravenous or oral administration of PCiv (10 mg/kg) determined by ultra-performance liquid chromatography (n = 4 rats for oral and 5 rats for intravenous administration). (B) Quantification of PCiv levels in each indicated tissue (ng/g tissue weight) determined by ultra-performance liquid chromatography (n = 3 rats, tissues collected 15 min after intravenous PCiv administration (10 mg/kg). PCiv was dissolved in a vehicle (DMSO:PEG400:saline ratio of 5:70:25) for solubilization. The quantified data are expressed as means ± standard deviations.
(§1) In vivo rat pharmacokinetic studies were performed for intravenous and oral administration of PCiv as previously reported. Sprague-Dawley rats (8 weeks old, 260–280 g) were purchased from Orient Bio Inc. (Seongnam, Korea). Rats were maintained with free access to food and water under a 12:12 h light/dark cycle for 1 week. For pharmacokinetic studies, under anesthetic conditions (20 mg/kg tiletamine/zolazepam [Zoletil; Vibrac Laboratories, Carros, France] administered intramuscularly), the femoral vein and artery were surgically cannulated using polyethylene tubing (PE50; Clay Adams, Parsippany, NJ, USA) in fasted rats. Then, PCiv was administered intravenously and orally at a dose of 10 mg/kg (n = 4–5). The drug was dissolved in a vehicle (DMSO:PEG400:saline at a ratio of 5:70:25). Blood samples (approximately 100 μL) were collected at predetermined time points (0, 1, 5 (intravenous administration only), 15, 30, 60, 120, 180, 240, 360, and 480 min) after drug administration. […] The PCiv level was determined using a CapcellpakTM C18 5 μm column (250 × 1.5 mm, Shiseido Fine Chemical Co., Tokyo, Japan), as previously described. […] The tissue concentration levels were calculated as the PCiv amount (ng) per gram of organ weight.

[2] = Dissolution in dosing vehicle; format: physicochemical; conditions: DMSO:PEG400:saline ratio of 5:70:25
Description: as §1

[3] = tested on: 6-OHDA-induced PD mouse model; design: method as in PMID 31689937; conditions: cited from earlier work

C/C=C(\C)C(=O)O[C@H]1[C@H](OC(C)=O)c2c(ccc3ccc(=O)oc23)OC1(C)C (relative stereo) [PCiv, trans-4′-acetyl-3′-tigloylkhellactone]
Kp at 15 min ([1]; 15 min after intravenous 10 mg/kg, read-out: brain tissue-to-plasma concentration ratio): 6.4 | Kp at 15 min ([1]; intravenous, 10 mg/kg, read-out: distribution to target organ compared with the plasma concentration): 6.4 | tissue-to-plasma concentration ratio, liver and kidneys ([1]; 15 min after intravenous 10 mg/kg): low | dissolution in vehicle solution [2]: well-dissolved

C/C=C(\C)C(=O)O[C@@H]1c2c(ccc3ccc(=O)oc23)OC(C)(C)[C@H]1OC(C)=O (relative stereo) [PCiii, peucedanocoumarin III]
neuroprotection [3]: neuroprotective
